{
  "source": "patent US20080317886A1",
  "about": "“Compositions for Preventing and Reducing Delayed Onset Muscle Soreness” (priority 2005, published 2008)",
  "origin": "cited, not measured here",
  "key": {"[1]": {"tested_on": "delayed onset muscle soreness", "conditions": "six days supplementation with 40 mg/kg HMB, single bout of exercise"}, "[2]": {"conditions": "\"in as little as\""}, "muscle damage (CPK, LDH)": {"tested_on": "muscle damage (CPK, LDH)", "conditions": "3 g HMB per day, six weeks of training, 20 km run; compared to placebo"}, "[3]": {"conditions": "HMB with 75 g glucose in water compared with HMB with water"}, "[4]": {"tested_on": "perceived muscle soreness", "conditions": "downhill running protocol"}, "[5]": {"tested_on": "muscle catabolism (3-methylhistidine)", "conditions": "intense resistance-weight training"}, "[6]": {"tested_on": "muscle damage (blood CPK)", "conditions": "men and women, 4-week weight training program"}},
  "data": [
    {"substance": "beta-hydroxy-beta-methylbutyrate [HMB]", "values": [
      {"measurement": "DOMS", "setting": "[1]", "value": "did not reduce"},
      {"measurement": "time to increase of plasma levels", "setting": "[2]", "value": 30, "unit": "min"},
      {"measurement": "blood levels of CPK after the run", "setting": "muscle damage (CPK, LDH)", "value": "reduced levels"},
      {"measurement": "blood levels of LDH after the run", "setting": "muscle damage (CPK, LDH)", "value": "reduced levels"},
      {"measurement": "HMB excreted in the urine", "setting": "[3]", "value": "less"},
      {"measurement": "plasma HMB levels", "setting": "[3]", "value": "lower"},
      {"measurement": "perceived muscle soreness", "setting": "[4]", "value": "reduced"},
      {"measurement": "strength loss", "setting": "[4]", "value": "less strength loss"},
      {"measurement": "plasma 3-MH", "setting": "[5]", "value": "significant decrease"},
      {"measurement": "decrease in blood CPK levels", "setting": "[6]", "value": 2, "unit": "%"}
    ]}
  ]
}
